Calls of active or inactive are those of the source.
Assays:
Cytochrome P450 3A4 = Cytochrome P450 3A4 (Homo sapiens, UniProt P08684);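 note: CYP3A4 tested as one member of a cytochrome P450 panel screen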
[1] = Luminescence Cell-Based Dose Retest to Confirm Inhibitors of Cancer Stem Cells. [Related pubchem assays (depositor defined):AID2717, AID2721]; type: functional; conditions: Homo sapiens
Cytochrome P450 1A2 = biological target: T1, Cytochrome P450 1A2 (Homo sapiens, UniProt P05177);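 note: PubChem cytochrome P450 panel assay, CYP1A2 panel member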
T1 sequence (P05177 whole entry): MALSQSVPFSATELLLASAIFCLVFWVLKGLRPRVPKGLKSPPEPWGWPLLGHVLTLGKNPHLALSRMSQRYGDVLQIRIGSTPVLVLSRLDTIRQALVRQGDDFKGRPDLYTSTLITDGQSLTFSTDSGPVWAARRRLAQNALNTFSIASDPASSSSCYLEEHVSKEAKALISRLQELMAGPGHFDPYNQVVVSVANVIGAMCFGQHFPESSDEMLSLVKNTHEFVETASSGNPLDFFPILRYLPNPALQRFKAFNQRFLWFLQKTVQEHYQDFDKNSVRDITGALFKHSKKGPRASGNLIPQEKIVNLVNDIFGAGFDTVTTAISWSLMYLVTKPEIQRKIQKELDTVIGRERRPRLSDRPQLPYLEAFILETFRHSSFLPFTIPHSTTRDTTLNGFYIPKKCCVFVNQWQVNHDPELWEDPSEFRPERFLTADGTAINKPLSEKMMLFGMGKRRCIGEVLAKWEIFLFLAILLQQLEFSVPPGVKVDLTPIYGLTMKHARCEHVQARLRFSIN

[2] = Luminescence Cell-Based Dose Response HTS to Identify Inhibitors of 5'UTR Stem-Loop Driven Prion Protein mRNA Translation in H4 Neuroglioblastoma Cells. [Related pubchem assays: 1827 (Project Summary), 1813 (Primary HTS)]; type: functional
[3] = luciferase reporter signal suppression in cells – H4 neuroglioma cells, luminescence, dose response (AID 1990); type: functional, cell-based
[4] = alpha-synuclein stem-loop luciferase translation blockers – H4 neuroglioma cells, luminescence, confirmation (AID 1988); type: functional, cell-based
[5] = biological target: T2, Rac GTPase-activating protein 1 (Homo sapiens, UniProt Q9H0H5); experiment: blockers of MgcRacGAP-driven Rac1 GTP hydrolysis – biochemical, ADP Hunter fluorescence, primary and confirmatory, confirmation (AID 624330); type: functional
T2 sequence (Q9H0H5 whole entry): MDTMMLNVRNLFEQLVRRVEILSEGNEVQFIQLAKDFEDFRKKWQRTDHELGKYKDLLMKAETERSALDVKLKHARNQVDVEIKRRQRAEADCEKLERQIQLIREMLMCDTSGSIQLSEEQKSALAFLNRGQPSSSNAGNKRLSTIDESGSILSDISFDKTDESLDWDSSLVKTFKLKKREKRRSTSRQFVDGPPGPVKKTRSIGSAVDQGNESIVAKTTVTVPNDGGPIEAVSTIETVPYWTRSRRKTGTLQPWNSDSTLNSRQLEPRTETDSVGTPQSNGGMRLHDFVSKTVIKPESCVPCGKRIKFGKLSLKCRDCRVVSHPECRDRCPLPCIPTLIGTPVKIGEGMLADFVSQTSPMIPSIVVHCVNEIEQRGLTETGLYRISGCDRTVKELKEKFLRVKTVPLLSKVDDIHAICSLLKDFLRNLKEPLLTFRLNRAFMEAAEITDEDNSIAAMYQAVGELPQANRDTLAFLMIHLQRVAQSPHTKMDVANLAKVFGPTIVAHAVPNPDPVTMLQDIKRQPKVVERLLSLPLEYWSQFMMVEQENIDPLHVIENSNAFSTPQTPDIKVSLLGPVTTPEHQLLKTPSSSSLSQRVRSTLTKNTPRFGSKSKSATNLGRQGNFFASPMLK

Cytochrome P450 2C9 = Cytochrome P450 2C9 (Homo sapiens, UniProt P11712)
Cytochrome P450 2C19 = Cytochrome P450 2C19 (Homo sapiens, UniProt P33261); experiment: Cytochrome panel assay with activity outcomes. Panel member name: p450-cyp2c19 Compounds with AC50 equal or less than 10 uM are considered active; type: functional; conditions: read-out: AC50
[6] = viability of uninfected HEp-2 cells – cell-based, HTS, cytotoxicity control for RSV inhibitor project, dose response (AID 2410); type: functional; conditions: human respiratory syncytial virus
[7] = Trypanosoma cruzi growth suppression in host cells – NIH3T3 host cells, beta-gal luminescence, confirmation (AID 2044); type: functional, cell-based;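 note: intracellular parasites grown in NIH/3T3 mouse fibroblasts as host cells; luminescent beta-galactosidase reporter signal from transgenic T. cruzi replicating inside host cells; inhibitors lower the luminescence signal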
[8] = NIH3T3 cell viability loss – ATP luminescence, mouse fibroblasts, counter-screen, dose response (AID 2010); type: functional, cell-based;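 note: cells exposed to compound for about 90 hours before reading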
H4 = experiment: Luminescence Cell-Based Dose Response HTS to Identify Activators of 5'UTR Stem-Loop Driven Prion Protein mRNA Translation in H4 Neuroglioblastoma Cells. [Related pubchem assays: 1829 (Project Summary), 1814 (Primary HTS)]; type: functional; conditions: Homo sapiens
Cytochrome P450 2D6 = Cytochrome P450 2D6 (Homo sapiens, UniProt P10635);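 note: CYP2D6 member of a cytochrome P450 panel assay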
[9] = biological target: T3, Zinc finger protein mex-5 (Caenorhabditis elegans, UniProt Q9XUB2); experiment: potency of MEX-5 RNA-binding blockers – biochemical, C. elegans, fluorescence polarization, dose response (AID 1960)
T3 sequence (Q9XUB2 whole entry): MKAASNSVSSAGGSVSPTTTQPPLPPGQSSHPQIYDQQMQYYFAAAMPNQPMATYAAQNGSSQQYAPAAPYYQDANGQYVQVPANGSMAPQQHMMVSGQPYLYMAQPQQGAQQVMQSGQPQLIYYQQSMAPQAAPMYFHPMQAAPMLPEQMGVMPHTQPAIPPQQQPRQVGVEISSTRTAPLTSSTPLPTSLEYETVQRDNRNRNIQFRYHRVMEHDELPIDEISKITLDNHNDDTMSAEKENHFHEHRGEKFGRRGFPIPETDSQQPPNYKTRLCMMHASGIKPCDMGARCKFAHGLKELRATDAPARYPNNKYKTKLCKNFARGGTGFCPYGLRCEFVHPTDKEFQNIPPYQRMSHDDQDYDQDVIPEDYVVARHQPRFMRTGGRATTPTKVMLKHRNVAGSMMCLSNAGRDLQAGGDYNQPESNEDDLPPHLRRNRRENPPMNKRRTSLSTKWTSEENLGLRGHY

[10] = biological target: T4, RNA-binding protein pos-1 (Caenorhabditis elegans, UniProt G5EF15); experiment: disruptors of C. elegans POS-1 RNA interaction – biochemical, fluorescence polarization, dose response (AID 1964);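 note: purified POS-1 fused to maltose binding protein made in E. coli; potency of compounds blocking POS-1 binding to fluorescent RNA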
T4 sequence (G5EF15 whole entry): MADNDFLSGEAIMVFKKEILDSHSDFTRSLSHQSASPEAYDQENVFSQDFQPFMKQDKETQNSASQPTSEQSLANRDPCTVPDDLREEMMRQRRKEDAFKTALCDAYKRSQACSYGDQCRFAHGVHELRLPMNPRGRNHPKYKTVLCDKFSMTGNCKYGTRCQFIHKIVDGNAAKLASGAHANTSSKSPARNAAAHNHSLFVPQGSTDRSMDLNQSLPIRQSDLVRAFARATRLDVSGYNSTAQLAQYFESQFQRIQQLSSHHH

Chain of Cytochrome P450 3A4 (P08684 whole entry): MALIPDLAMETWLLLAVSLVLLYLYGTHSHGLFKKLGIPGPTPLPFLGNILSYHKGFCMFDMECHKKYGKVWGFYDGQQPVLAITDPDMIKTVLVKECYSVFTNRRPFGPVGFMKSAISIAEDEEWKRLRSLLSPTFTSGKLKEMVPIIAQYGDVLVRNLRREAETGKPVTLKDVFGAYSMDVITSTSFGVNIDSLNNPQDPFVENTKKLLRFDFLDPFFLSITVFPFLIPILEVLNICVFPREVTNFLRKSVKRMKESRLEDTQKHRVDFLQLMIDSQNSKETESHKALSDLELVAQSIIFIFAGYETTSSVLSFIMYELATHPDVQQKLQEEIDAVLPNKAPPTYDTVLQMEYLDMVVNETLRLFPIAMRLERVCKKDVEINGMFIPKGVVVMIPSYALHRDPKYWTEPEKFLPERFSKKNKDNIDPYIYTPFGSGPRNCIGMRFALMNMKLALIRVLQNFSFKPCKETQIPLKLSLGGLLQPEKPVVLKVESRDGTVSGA
Chain of Cytochrome P450 2C19 (P33261 whole entry): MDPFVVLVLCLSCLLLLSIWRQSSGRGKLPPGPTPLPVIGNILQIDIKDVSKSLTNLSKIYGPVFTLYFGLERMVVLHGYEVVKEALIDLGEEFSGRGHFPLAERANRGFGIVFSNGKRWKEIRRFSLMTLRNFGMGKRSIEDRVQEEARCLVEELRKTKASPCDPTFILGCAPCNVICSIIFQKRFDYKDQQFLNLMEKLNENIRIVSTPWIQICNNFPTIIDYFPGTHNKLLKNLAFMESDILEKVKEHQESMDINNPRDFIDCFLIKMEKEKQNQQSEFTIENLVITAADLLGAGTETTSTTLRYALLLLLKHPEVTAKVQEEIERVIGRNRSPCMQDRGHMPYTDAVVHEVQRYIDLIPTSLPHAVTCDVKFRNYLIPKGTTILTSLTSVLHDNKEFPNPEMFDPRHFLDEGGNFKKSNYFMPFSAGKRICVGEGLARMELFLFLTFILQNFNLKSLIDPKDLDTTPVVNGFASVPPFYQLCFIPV
Chain of Cytochrome P450 2C9 (P11712 whole entry): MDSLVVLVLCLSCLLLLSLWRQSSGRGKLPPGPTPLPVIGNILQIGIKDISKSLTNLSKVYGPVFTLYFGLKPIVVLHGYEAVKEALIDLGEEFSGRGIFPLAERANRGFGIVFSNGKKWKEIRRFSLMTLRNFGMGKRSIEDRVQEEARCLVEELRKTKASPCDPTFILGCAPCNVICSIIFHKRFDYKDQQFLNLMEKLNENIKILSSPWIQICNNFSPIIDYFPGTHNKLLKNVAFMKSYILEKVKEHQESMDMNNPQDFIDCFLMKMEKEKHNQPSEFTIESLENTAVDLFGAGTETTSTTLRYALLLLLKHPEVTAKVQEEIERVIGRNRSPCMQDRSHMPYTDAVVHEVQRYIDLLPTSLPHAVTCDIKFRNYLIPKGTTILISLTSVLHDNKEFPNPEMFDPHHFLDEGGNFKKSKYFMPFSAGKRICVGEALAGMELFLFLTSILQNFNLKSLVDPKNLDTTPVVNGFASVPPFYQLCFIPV
Chain of Cytochrome P450 2D6 (P10635 whole entry): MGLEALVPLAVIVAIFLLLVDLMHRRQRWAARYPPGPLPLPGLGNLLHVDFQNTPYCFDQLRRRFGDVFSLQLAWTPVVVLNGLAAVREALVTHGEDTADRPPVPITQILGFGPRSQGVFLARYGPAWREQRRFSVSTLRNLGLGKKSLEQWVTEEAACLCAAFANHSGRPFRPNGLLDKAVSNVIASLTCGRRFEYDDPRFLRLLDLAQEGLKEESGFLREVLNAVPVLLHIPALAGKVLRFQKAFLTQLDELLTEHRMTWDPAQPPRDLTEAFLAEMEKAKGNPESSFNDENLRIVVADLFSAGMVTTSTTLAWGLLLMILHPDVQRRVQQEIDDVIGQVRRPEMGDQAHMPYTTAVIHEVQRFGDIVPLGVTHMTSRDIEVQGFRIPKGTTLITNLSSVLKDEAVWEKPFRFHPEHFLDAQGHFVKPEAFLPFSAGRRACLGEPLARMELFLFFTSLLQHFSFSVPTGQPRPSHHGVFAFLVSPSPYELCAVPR

For `Nc1nc(SCc2ccc([N+](=O)[O-])cc2)c2ncn([C@@H]3O[C@@H](CO)[C@@H](O)[C@H]3O)c2n1`, the AC50 (Cytochrome P450 3A4) was 15.8 µM (inconclusive).
For `Cc1cc(NCCCn2ccnc2)n2nc(C)c(-c3ccc(Cl)cc3)c2n1`, the AC50 [1] was 6.35 µM (active).
For `O=C1C(Cc2ccccc2)NC(=S)N1c1ccccc1` (configuration not stated), the AC50 (Cytochrome P450 3A4) was 2.24 µM (inconclusive) and the AC50 (Cytochrome P450 1A2) was 2.24 µM (inconclusive).
For `CC(C)CCn1cnc2c(c1=O)c1nc3ccccc3nc1n2Cc1ccc2c(c1)OCO2`, the EC50 [2] was > 120 µM (not active), the EC50 [3] was > 120 µM (not active) and the EC50 [4] was > 120 µM (not active).
For `S=C(NCc1ccccc1)NCc1ccc(CNC(=S)NCc2ccccc2)cc1`, the EC50 [2] was > 120 µM (not active), the EC50 [3] was > 120 µM (not active) and the EC50 [4] was > 120 µM (not active).
With `CCc1c(C)nc(N)n2c(SCC(=O)Nc3ccccc3OC)nnc12` the EC50 [2] was > 120 µM (not active), the EC50 [3] was > 120 µM (not active) and the EC50 [4] was > 120 µM (not active).
For `CCS(=O)(=O)c1nc(S(=O)(=O)c2ccc(C)cc2)c(N2CC(C)CC(C)C2)s1` (configuration not stated), the EC50 [2] was > 120 µM (not active), the EC50 [3] was > 120 µM (not active) and the EC50 [4] was > 120 µM (not active).
With `COc1ccc(-c2nc3cnc(N4CCNCC4)nc3n(CCC#N)c2=O)cc1` the AC50 (Cytochrome P450 3A4) was 12.6 µM (inconclusive) and the AC50 (Cytochrome P450 1A2) was 15.8 µM (inconclusive).
For `COC(=O)CCNCCSc1nnc(-c2ccco2)n1Cc1ccccc1`, the IC50 [5] was 98.5 µM (active).
For `CCC(C)[C@H](NC(=O)N1CCCC1)C(=O)O` (some centres not stated), the EC50 [2] was > 120 µM (not active), the EC50 [3] was > 120 µM (not active) and the EC50 [4] was > 120 µM (not active).
In the case of `COc1ccc(/C=C\C(=O)Nc2ccccc2C(=O)O)cc1OC`, the AC50 (Cytochrome P450 3A4) was 39.8 µM (inconclusive), the AC50 (Cytochrome P450 1A2) was 39.8 µM (inconclusive) and the AC50 (Cytochrome P450 2C9) was 15.8 µM (inconclusive).
In the case of `COc1ccc(CN2CCN(Cc3cccn3-c3ncccn3)CC2CCO)c(C)c1C` (configuration not stated), the EC50 [2] was > 120 µM (not active), the EC50 [3] was > 120 µM (not active) and the EC50 [4] was 12.1 µM (active).
For `Cc1ccc(-c2csc(NC(=S)NC(=O)/C=C/c3ccco3)n2)cc1`, the AC50 (Cytochrome P450 3A4) was 15.8 µM (inconclusive) and the AC50 (Cytochrome P450 2C9) was 0.282 µM (inconclusive).
For `CCOc1ccc(N(C(C)C(=O)NC(C)CC)S(C)(=O)=O)cc1` (configuration not stated), the AC50 (Cytochrome P450 3A4) was 14.1 µM (inconclusive) and the AC50 (Cytochrome P450 2C19) was 7.94 µM (inconclusive).
In the case of `CCOC(=O)C1=C(C)N2C(=C(C#N)[C@@H]1c1ccc(C(=O)OC)cc1)SC[C@@]2(O)C(C)(C)C`, the AC50 [1] was 0.33 µM (active).
For `Cc1cccc(N2CCN(C(=O)CC(NC(=O)c3ccccc3)c3ccccc3)CC2C)c1` (configuration not stated), the EC50 [2] was > 120 µM (not active), the EC50 [3] was > 120 µM (not active) and the EC50 [4] was > 120 µM (not active).
With `O=C(NCCCN1CCCC1=O)Nc1ccc(F)c(Cl)c1` the AC50 (Cytochrome P450 3A4) was 28.2 µM (inconclusive), the AC50 (Cytochrome P450 2C19) was 39.8 µM (inconclusive) and the AC50 (Cytochrome P450 1A2) was 22.4 µM (inconclusive).
With `O=C(COCC(=O)Nc1cccc(C(F)(F)F)c1)Nc1cccc(C(F)(F)F)c1` the AC50 [1] was 5.16 µM (active).
In the case of `N#Cc1ccc(CN2CCC3(CC2)CCN(C(=O)c2ccncc2)CC3)cc1`, the AC50 (Cytochrome P450 3A4) was 12.6 µM (inconclusive).
In the case of `O=C(Nc1ccc(-c2csc(Nc3cccc(C(F)(F)F)c3)n2)cc1)c1ccccc1`, the CC50 [6] was 17.2 µM (active), the EC50 [7] was 0.859 µM (active) and the AC50 [1] was 1.54 µM (active). For the same molecule, the EC50 [8] was 7.93 µM (active).
For `O=c1c2[nH]cnc2n(-c2ccc(F)cc2)c(=O)n1Cc1ccccc1`, the EC50 [2] was 39.3 µM (active), the EC50 [3] was > 120 µM (not active) and the EC50 [4] was > 120 µM (not active).
For `CCCOc1ccc(NC(=O)CC2C(=O)N(c3ccc(OCC)cc3)C(=S)N2C2CC2)cc1` (configuration not stated), the EC50 [2] was > 120 µM (not active), the EC50 [3] was > 120 µM (not active) and the EC50 [4] was 12.1 µM (active).
With `Nc1ccc(C(=O)n2c3ccccc3c3ccccc32)cc1` the EC50 [2] was 9.6 µM (active) and the EC50 [3] was 9.05 µM (active).
For `CC(C)C(=O)Nc1cc2c(cc1C(=O)c1ccccc1)OCCO2`, the AC50 (Cytochrome P450 3A4) was 22.4 µM (inconclusive).
With `Cc1ccc(C(=O)NC2CCCCCC2)cc1N1CCCC1=O` the AC50 (Cytochrome P450 3A4) was 25.1 µM (inconclusive) and the AC50 (Cytochrome P450 2C9) was 25.1 µM (inconclusive).
For `C=CCC(C)(NCc1ccccc1)c1ccco1` (configuration not stated), the AC50 (Cytochrome P450 3A4) was 15.8 µM (inconclusive) and the AC50 (Cytochrome P450 2C9) was 0.0355 µM (inconclusive).
With `COc1cc(/C(C)=N\NC(=O)CSc2nc3ccccc3n2C)ccc1O` the IC50 [5] was 41.6 µM (active).
With `CCOc1cc(/C=N/Nc2nc(O)nnc2C)ccc1O` the IC50 [5] was 40.2 µM (active).
For `COc1ccc(/C=N/NC(=S)NC2CCS(=O)(=O)C2)cc1OC` (configuration not stated), the AC50 (Cytochrome P450 3A4) was 22.4 µM (inconclusive).
In the case of `COc1cc(/C=N/NC(=O)c2ccc(CN(C)S(=O)(=O)c3ccc(C)cc3)cc2)ccc1O`, the AC50 [1] was 2.5 µM (active).
With `CCOC(=O)N/N=C/c1ccc(N2CCOCC2)s1` the IC50 [5] was 52.6 µM (active).
In the case of `CCOC(=O)c1ccc(-c2ccc(/C=N/NC(=O)c3cncc(Br)c3)o2)cc1`, the EC50 (H4) was 117 µM (active).
In the case of `Cc1c(C(=O)N/N=C/c2ccccc2)sc(=S)n1C`, the AC50 (Cytochrome P450 3A4) was 25.1 µM (inconclusive), the AC50 (Cytochrome P450 2C19) was 25.1 µM (inconclusive) and the AC50 (Cytochrome P450 2D6) was 0.01 µM (inconclusive).
With `CCOC(=O)c1c(NC=C2C(=O)CCCC2=O)sc(C)c1C` the IC50 [5] was 102 µM (active).
With `O=C(/C=C/c1ccc(O)c(O)c1)OC(Cc1ccc(O)c(O)c1)C(=O)O` (configuration not stated) the IC50 [5] was 35 µM (active), the EC50 [9] was 8.75 µM (active) and the EC50 [10] was 13.6 µM (active).
For `Nc1ccc(Sc2ccc(N)cc2)cc1` [4,4'-THIODIANILINE], the IC50 [5] was 13.2 µM (active).
